Target: T1, mutant B-RAF (Homo sapiens, UniProt P15056, V600E)
T1 construct: purchased Upstate (Charlottesville, Va.)
Assay: RAF biochemical assay (MEK-1 phosphorylation, anti-phospho MEK1/2 detection)
Conditions: @ 3 uM
Outline: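 Detection is by ELISA: after a 30 min room-temperature reaction, plate-captured GST-MEK-1 is probed with anti-phospho MEK1/2, then an AP-tagged secondary antibody with fluorescent Attophos read-out.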

T1 sequence (P15056 whole entry V600E): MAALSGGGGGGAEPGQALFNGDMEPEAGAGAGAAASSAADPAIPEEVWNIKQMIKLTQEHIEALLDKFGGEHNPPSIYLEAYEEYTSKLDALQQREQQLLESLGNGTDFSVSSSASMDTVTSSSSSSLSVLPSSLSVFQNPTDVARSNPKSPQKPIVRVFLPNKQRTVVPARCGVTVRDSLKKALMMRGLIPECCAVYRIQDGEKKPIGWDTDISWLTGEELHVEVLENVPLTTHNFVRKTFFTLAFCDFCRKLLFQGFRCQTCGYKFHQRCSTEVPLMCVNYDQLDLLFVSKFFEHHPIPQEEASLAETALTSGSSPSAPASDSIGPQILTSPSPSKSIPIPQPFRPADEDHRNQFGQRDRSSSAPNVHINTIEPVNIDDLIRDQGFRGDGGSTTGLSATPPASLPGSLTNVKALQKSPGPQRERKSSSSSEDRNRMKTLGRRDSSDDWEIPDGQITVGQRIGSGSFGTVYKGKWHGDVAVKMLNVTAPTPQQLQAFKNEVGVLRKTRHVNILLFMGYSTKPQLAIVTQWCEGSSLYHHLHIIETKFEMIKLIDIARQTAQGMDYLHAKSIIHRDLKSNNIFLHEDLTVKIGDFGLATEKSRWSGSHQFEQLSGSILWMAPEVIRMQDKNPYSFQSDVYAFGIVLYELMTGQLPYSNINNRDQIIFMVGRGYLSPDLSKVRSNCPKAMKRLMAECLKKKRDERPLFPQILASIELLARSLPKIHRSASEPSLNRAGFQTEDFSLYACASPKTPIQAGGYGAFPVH

inhibition at 3 µM [%]	SMILES
2	c1ccc(-c2ccc(-c3nc4sccn4c3-c3ccnc(NC4CCNCC4)n3)cc2)cc1 [Example 250, 4-(6-biphenyl-4-ylimidazo[2,1-b][1,3]thiazol-5-yl)-N-piperidin-4-ylpyrimidin-2-amine]

Same assay, conditions: @ 10 uM; read-out: Mutant B-RAF % inhibition

inhibition at 10 µM [%]	SMILES
63	O=C(NCc1ccccc1)N1CCC(Nc2nccc(-c3c(-c4ccc(F)c(F)c4)nc4sccn34)n2)CC1 [Example 251, N-benzyl-4-({4-[6-(3,4-difluorophenyl)imidazo[2,1-b][1,3]thiazol-5-yl]pyrimidin-2-yl}amino)piperidine-1-carboxamide]
5	O=S(=O)(c1ccc(Cl)cc1)N1CCC(Nc2nccc(-c3c(-c4ccc(O)cc4)nc4sccn34)n2)CC1 [Example 264, 4-{5-[2-({1-[(4-chlorophenyl)sulfonyl]piperidin-4-yl}amino)pyrimidin-4-yl]imidazo[2,1-b][1,3]thiazol-6-yl}phenol]
58	N#Cc1cccc(-c2nc3sccn3c2-c2ccnc(NC3CCNCC3)n2)c1 [Example 271, 3-{5-[2-(piperidin-4-ylamino)pyrimidin-4-yl]imidazo[2,1-b][1,3]thiazol-6-yl}benzonitrile]
30	Fc1ccc(-c2nc3sccn3c2-c2ccnc(N[C@H]3CCNC3)n2)cc1 [Example 275, 4-[6-(4-fluorophenyl)imidazo[2,1-b][1,3]thiazol-5-yl]-N-[(3S)-pyrrolidin-3-yl]pyrimidin-2-amine]
95	O=S(=O)(c1ccc(Cl)cc1)N1CC[C@H](Nc2nccc(-c3c(-c4ccc(F)cc4)nc4sccn34)n2)C1 [Example 276, N-{(3S)-1-[(4-chlorophenyl)sulfonyl]pyrrolidin-3-yl}-4-[6-(4-fluorophenyl)imidazo[2,1-b][1,3]thiazol-5-yl]pyrimidin-2-amine]
10	O=S(=O)(c1ccc(Cl)cc1)N1CC[C@@H](Nc2nccc(-c3c(-c4ccc(F)cc4)nc4sccn34)n2)C1 [Example 278, N-{(3R)-1-[(4-chlorophenyl)sulfonyl]pyrro-lidin-3-yl}-4-[6-(4-fluorophenyl)imidazo[2,1-b][1,3]thiazol-5-yl]pyrimidin-2-amine]
36	COc1cccc(-c2nc3sccn3c2-c2ccnc(N[C@@H]3CCNC3)n2)c1 [Example 279, 4-[6-(3-methoxyphenyl)imidazo[2,1-b][1,3]thiazol-5-yl]-N-[(3R)-pyrrolidin-3-yl]pyrimidin-2-amine]
37	COc1cccc(-c2nc3sccn3c2-c2ccnc(N[C@@H]3CCN(S(=O)(=O)c4ccc(Cl)cc4)C3)n2)c1 [Example 280, N-{(3R)-1-[(4-chlorophenyl)sulfonyl]pyrro-lidin-3-yl}-4-[6-(3-methoxyphenyl)imidazo[2,1-b][1,3]thiazol-5-yl]pyrimidin-2-amine]

Same assay, conditions: read-out: Mutant B-RAF IC50

SMILES	IC50 [nM]
CC(=O)Nc1ccc(-c2nc3sccn3c2-c2ccnc(NC3CCN(S(=O)(=O)c4ccc(Cl)cc4)CC3)n2)cc1 [Example 259, N-(4-{5-[2-({1-[(4-chlorophenyl)sulfonyl]piperidin-4-yl}amino)pyrimidin-4-yl]imidazo[2,1-b][1,3]thiazol-6-yl}phenyl)acetamide]	> 3000
COc1ccccc1-c1nc2sccn2c1-c1ccnc(NC2CCNCC2)n1 [Example 261, 4-[6-(2-methoxyphenyl)imidazo[2,1-b][1,3]thiazol-5-yl]-N-piperidin-4-ylpyrimidin-2-amine]	> 3000
COc1ccc(-c2nc3sccn3c2-c2ccnc(NC3CCN(S(=O)(=O)c4ccc(Cl)cc4)CC3)n2)cc1 [Example 262, N-{1-[(4-chlorophenyl)sulfonyl]piperidin-4-yl}-4-[6-(4-methoxyphenyl)imidazo[2,1-b][1,3]thiazol-5-yl]pyrimidin-2-amine]	> 3000
COc1cccc(-c2nc3sccn3c2-c2ccnc(NC3CCN(S(=O)(=O)c4ccc(Cl)cc4)CC3)n2)c1 [Example 263, N-{1-[(4-chlorophenyl)sulfonyl]piperidin-4-yl}-4-[6-(3-methoxyphenyl)imidazo[2,1-b][1,3]thiazol-5-yl]pyrimidin-2-amine]	> 5000
O=S(=O)(c1ccc(Cl)cc1)N1CCC(Nc2nccc(-c3c(-c4ccc(F)c(F)c4)nc4sccn34)n2)CC1 [Example 265, N-{1-[(4-chlorophenyl)sulfonyl]piperidin-4-yl}-4-[6-(3,4-difluorophenyl)imidazo[2,1-b][1,3]thiazol-5-yl]pyrimidin-2-amine]	> 3000
COc1cccc(-c2nc3sccn3c2-c2ccnc(N[C@@H]3CCN(S(=O)(=O)c4ccc(C(=O)O)cc4)C3)n2)c1 [Example 281, 4-{[(3R)-3-({4-[6-(3-methoxyphenyl)imidazo[2,1-b][1,3]thiazol-5-yl]pyrimidin-2-yl}amino)pyrrolidin-1-yl]sulfonyl)benzoic acid]	> 3000

Second part, the molecule after the results:

IC50 [nM]	SMILES
> 3000	Cc1ccc(-c2nc3scc(C)n3c2-c2ccnc(NC3CCN(C(=O)Nc4ccc(N(C)C)cc4)CC3)n2)cc1 [Example 252, N-[4-(dimethylamino)phenyl]-4-({4-[3-methyl-6-(4-methylphenyl)imidazo[2,1-b][1,3]thiazol-5-yl]pyrimidin-2-yl}amino)piperidine-1-carboxamide]
> 3000	CN(C)c1ccc(NC(=O)N2CCC(Nc3nccc(-c4c(-c5ccc([N+](=O)[O-])cc5)nc5sccn45)n3)CC2)cc1 [Example 253, N-[4-(dimethylamino)phenyl]-4-({4-[6-(4-nitrophenyl)imidazo[2,1-b][1,3]thiazol-5-yl]pyrimid-in-2-yl}amino)piperidine-1-carboxamide]
> 3000	CN(C)c1ccc(NC(=O)N2CCC(Nc3nccc(-c4c(-c5ccc(-c6ccccc6)cc5)nc5sccn45)n3)CC2)cc1 [Example 254, 4-{[4-(6-biphenyl-4-ylimidazo[2,1-b][1,3]thiazol-5-yl)pyri-midin-2-yl]amino)-N-[4-(di-methylamino)phenyl]piperidine-1-carboxamide]
696	O=S(=O)(c1ccc(Cl)cc1)N1CCC(Nc2nccc(-c3c(-c4ccc(F)cc4)nc4sccn34)n2)CC1 [Example 255, N-{1-[(4-chlorophenyl)sulfonyl]piperidin-4-yl}-4-[6-(4-fluorophenyl)imidazo[2,1-b][1,3]thiazol-5-yl]pyrimidin-2-amine]
> 1000	NC(=O)N1CCC(Nc2nccc(-c3c(-c4ccc(F)cc4)nc4occn34)n2)CC1 [Example 256, 4-({4-[6-(4-fluorophenyl)imidazo[2,1-b][1,3]oxazol-5-yl]pyrimidin-2-yl}amino)piperidine-1-carboxamide]
73	Cc1cn2c(-c3ccnc(NC4CCN(S(=O)(=O)c5ccc(Cl)cc5)CC4)n3)c(-c3ccc(F)cc3)nc2s1 [Example 257, N-{1-[(4-chlorophenyl)sulfonyl]piperidin-4-yl}-4-[6-(4-fluorophenyl)-2-methylimidazo[2,1-b][1,3]thiazol-5-yl]pyrimidin-2-amine]
322	Cc1cn2c(-c3ccnc(NC4CCN(S(=O)(=O)c5ccc(C(=O)O)cc5)CC4)n3)c(-c3ccc(F)cc3)nc2s1 [Example 258, 4-{[4-({4-[6-(4-fluorophenyl)-2-methylimidazo[2,1-b][1,3]thiazol-5-yl]pyrimidin-2-yl}amino)piperidin-1-yl]sulfonyl}benzoic acid]
186	O=S(=O)(c1ccc(F)cc1)N1CCC(Nc2nccc(-c3c(-c4ccc5c(c4)OCCO5)nc4sccn34)n2)CC1 [Example 260, 4-[6-(2,3-dihydro-1,4-benzodioxin-6-yl)imidazo[2,1-b][1,3]thiazol-5-yl]-N-{1-[(4-fluorophenyl)sulfonyl]piperidin-4-yl}pyrimidin-2-amine]
29	O=S(=O)(c1ccc(F)cc1)N1CCC(Nc2nccc(-c3c(-c4cccc(O)c4)nc4sccn34)n2)CC1 [Example 266, 3-{5-[2-({1-[(4-fluorophenyl)sulfonyl]piperidin-4-yl}amino)pyrimidin-4-yl]imidazo[2,1-b][1,3]thiazol-6-yl}phenol]
1630	N#Cc1cccc(-c2nc3sccn3c2-c2ccnc(NC3CCN(S(=O)(=O)c4ccc(Cl)cc4)CC3)n2)c1 [Example 269, 3-{5-[2-({1-[(4-chlorophenyl)sulfonyl]piperidin-4-yl)amino)pyrimidin-4-yl]imidazo[2,1-b][1,3]thiazol-6-yl}benzonitrile]
316	COc1cccc(-c2nc3sccn3c2-c2ccnc(NC3CCN(S(=O)(=O)c4ccc(CCC(=O)O)cc4)CC3)n2)c1 [Example 270, 3-(4-{[4-({4-[6-(3-methoxyphenyl)imidazo[2,1-b][1,3]thiazol-5-yl]pyrimidin-2-yl}amino)piperidin-1-yl]sulfonyl}phenyl)propanoic acid]
10	COC(=O)CCc1ccc(S(=O)(=O)N2CCC(Nc3nccc(-c4c(-c5cccc(O)c5)nc5sccn45)n3)CC2)cc1 [Example 272, methyl 3-(4-{[4-({4-[6-(3-hydroxyphenyl)imidazo[2,1-b][1,3]thiazol-5-yl]pyrimidin-2-yl}amino)piperidin-1-yl]sulfonyl}phenyl)propanoate]
10	O=C(O)CCc1ccc(S(=O)(=O)N2CCC(Nc3nccc(-c4c(-c5cccc(O)c5)nc5sccn45)n3)CC2)cc1 [Example 273, 3-(4-{[4-({4-[6-(3-hydroxyphenyl)imidazo[2,1-b][1,3]thiazol-5-yl]pyrimidin-2-yl}amino)piperidin-1-yl]sulfonyl}phenyl)propanoic acid]
722	O=[N+]([O-])c1ccccc1-c1nc2sccn2c1-c1ccnc(NC2CCN(S(=O)(=O)c3ccc(Cl)cc3)CC2)n1 [Example 274, N-{1-((4-chlorophenyl)sulfonyl]piperidin-4-yl}-4-[6-(2-nitrophenyl)imidazo[2,1-b][1,3]thiazol-5-yl]pyrimidin-2-amine]
44	Fc1ccc(-c2nc3sccn3c2-c2ccnc(N[C@@H]3CCNC3)n2)cc1 [Example 277, 4-[6-(4-fluorophenyl)imidazo[2,1-b][1,3]thiazol-5-yl]-N-[(3R)-pyrrolidin-3-yl]pyrimidin-2-amine]
